Laboratory results: patent US9139557B2, “Carboxamide compounds and their use as calpain inhibitors” (Abbott GmbH & Co. KG, priority 2006, dated 2015)

Experiments:
Format in all cases: biochemical
[1] = molecular target: T1, cathepsin S (Homo sapiens, UniProt P25774); assay: Cathepsin S enzyme inhibition in vitro (kinetic fluorescence assay); details: Ki(cathepsin S)/Ki(calpain) ratio
T1 construct: purchased Calbiochem 219343; host or cells: E. coli
How it was run: (§1)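 Kinetic fluorescence (ex 390/em 460 nm), RT. Calpain-I: 20 nM erythrocyte-derived, 100 μM Suc-Leu-Tyr-AMC, imidazole/CaCl2, pH 7.3. Cathepsins, pH 6.0 MES/EDTA/cysteine: B 0.25 nM liver, 100 μM Z-Phe-Arg-AMC; L 1 nM liver, 2 μM Z-Phe-Arg-AMC; S 0.5 nM recombinant, 20 μM Z-Val-Val-Arg-AMC. Cheng-Prusoff Ki, mean of 2–4 curves.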

[2] = molecular target: T2, cathepsin L (Homo sapiens, UniProt P07711); assay: Cathepsin L enzyme inhibition in vitro (kinetic fluorescence assay); details: Ki(cathepsin L)/Ki(calpain) ratio
T2 construct: cathepsin L—isolated from human liver; purchased Calbiochem 219402; host or cells: human liver (tissue isolate)
How it was run: as §1

[3] = molecular target: T3, cathepsin B (Homo sapiens, UniProt P07858); assay: Cathepsin B enzyme inhibition in vitro (kinetic fluorescence assay); details: Ki(cathepsin B)/Ki(calpain) ratio
T3 construct: cathepsin B—isolated from human liver; purchased Calbiochem 219362; host or cells: human liver (tissue isolate)
How it was run: as §1

[4] = molecular target: T4, cathepsin K (Homo sapiens, UniProt P43235); assay: Cathepsin K enzyme inhibition in vitro (kinetic fluorescence assay); details: Ki(cathepsin K)/Ki(calpain) ratio
T4 construct: purchased Calbiochem 342001; host or cells: E. coli
T4 sequence (P43235 115-329): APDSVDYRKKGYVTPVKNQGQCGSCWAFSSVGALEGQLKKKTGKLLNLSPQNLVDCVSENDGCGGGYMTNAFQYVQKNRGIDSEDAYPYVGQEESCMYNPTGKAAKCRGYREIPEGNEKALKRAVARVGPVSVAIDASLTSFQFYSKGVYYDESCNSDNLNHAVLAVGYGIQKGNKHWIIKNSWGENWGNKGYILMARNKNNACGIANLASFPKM
Procedure: Testing for blockade of the corresponding enzymic activities was carried out by means of kinetic fluorescence assays (excitation 390 nm, emission 460 nm).
Apparent Ki values were calculated from the experimentally determined IC50 values by the Cheng-Prussoff relation assuming a reversible competitive enzyme inhibition. The Km values of the substrates used under the assay conditions indicated above were: 90 μM (Z-Phe-Arg-AMC, cathepsin B), 10 μM (Z-Gly-Pro-Arg-AMC, cathepsin K), 2 μM (Z-Phe-Arg-AMC, cathepsin L), and 30 μM (Z-Val-Val-Arg-AMC, cathepsin S).
The indicated Ki values are averages of the inhibition constants calculated on the basis of 2 to 4 independent dose-effect plots.
• 1. Calpain I: • 20 nM calpain-I—isolated from human erythrocytes (Calbiochem #208713), 100 μM Suc-Leu-Tyr-AMC (Bachem #1-1355) as substrate in buffer with 62 mM imidazole, 0.3 mM CaCl2, 0.10% CHAPS, 0.05% BSA, 1 mM DTT at pH 7.3 and room temperature. • 2. Cathepsin B: • 0.25 nM cathepsin B—isolated from human liver (Calbiochem #219362), 100 μM Z-Phe-Arg-AMC (Bachem #1-1160) as substrate 50 mM MES, 2 mM EDTA, 0.05% Brij 35, 2.5 mM L-cysteine, pH 6.0, room temperature. • 3. Cathepsin K: • 3 nM cathepsin K—activated from recombinant human procathepsin K from E. coli (Calbiochem #342001), 10 μM Z-Gly-Pro-Arg-AMC (Biomol #P-142) as substrate in 50 mM MES, 2 mM EDTA, 0.05% Brij 35, 2.5 mM L-cysteine, pH 6.0, room temperature. • 4. Cathepsin L: • 1 nM cathepsin L—isolated from human liver (Calbiochem #219402), 2 μM Z-Phe-Arg-AMC (Bachem #1-1160) as substrate in 50 mM MES, 2 mM EDTA, 0.05% Brij 35, 2.5 mM L-cysteine, pH 6.0, room temperature. • 5. Cathepsin S: • 0.5 nM recombinant human cathepsin S from E. coli (Calbiochem #219343), 20 μM Z-Val-Val-Arg-AMC (Bachem #1-1540) as substrate in 50 mM MES, 2 mM EDTA, 0.05% Brij 35, 2.5 mM L-cysteine, pH 6.0, room temperature.

T1 sequence (P25774 115-331): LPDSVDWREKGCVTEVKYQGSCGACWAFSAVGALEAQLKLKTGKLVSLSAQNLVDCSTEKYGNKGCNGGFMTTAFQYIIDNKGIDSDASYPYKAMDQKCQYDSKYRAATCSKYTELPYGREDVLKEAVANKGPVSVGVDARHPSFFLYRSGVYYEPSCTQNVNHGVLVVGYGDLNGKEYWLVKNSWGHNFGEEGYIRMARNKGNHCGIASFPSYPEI
T2 sequence (P07711 114-333): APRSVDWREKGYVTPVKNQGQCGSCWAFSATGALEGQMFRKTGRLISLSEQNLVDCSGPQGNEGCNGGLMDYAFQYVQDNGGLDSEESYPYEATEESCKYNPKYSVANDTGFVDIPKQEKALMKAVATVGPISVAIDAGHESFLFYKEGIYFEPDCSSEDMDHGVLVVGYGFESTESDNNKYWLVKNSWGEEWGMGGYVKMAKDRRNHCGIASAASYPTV

| Structure (SMILES) | Sel cat. S [1] | Sel cat. L [2] | Sel cat. B [3] | Sel cat. K [4] |
| --- | --- | --- | --- | --- |
| NC(=O)C(=O)C(Cc1ccccc1)NC(=O)c1cccnc1-n1ccc(-c2ccc(Cl)s2)n1 (centres unmarked) [Example 103, N-[3-Amino-2,3-dioxo-1-(phenylmethyl)propyl]-2-[3-(5-chloro-2-thienyl)-1H-pyrazol-1-yl]pyridine-3-carboxamide] | ++ (++ means a Ki(cathepsin S)/Ki(calpain) ratio of ≧100) | ++ (++ means a Ki(cathepsin L)/Ki(calpain) ratio of ≧50) | + (+ means 10≦Ki(cathepsin B)/Ki(calpain)<30) | + (+ means 10≦Ki(cathepsin K)/Ki(calpain)<30) |
| NC(=O)C(=O)C(Cc1ccccc1)NC(=O)c1cccnc1-n1cc2c(n1)-c1cccc(Cl)c1OC2 (centres unmarked) [Example 175, N-[3-Amino-2,3-dioxo-1-(phenylmethyl)propyl]-2-(6-chlorochromeno[4,3-c]pyrazol-2(4H)-yl)pyridine-3-carboxamide] | ++ (++ means a Ki(cathepsin S)/Ki(calpain) ratio of ≧100) | ++ (++ means a Ki(cathepsin L)/Ki(calpain) ratio of ≧50) | ++ (++ means a Ki(cathepsin B)/Ki(calpain) ratio of ≧30) | ++ (++ means a Ki(cathepsin K)/Ki(calpain) ratio of ≧30) |
| COc1ccc(CC(NC(=O)c2cccnc2-n2ccc(-c3cccc(Cl)c3Cl)n2)C(=O)C(N)=O)cc1 (centres unmarked) [Example 153, N-(3-Amino-1-{[4-(methyloxy)phenyl]methyl}-2,3-dioxopropyl)-2-[3-(2,3-dichlorophenyl)-1H-pyrazol-1-yl]pyridine-3-carboxamide] | ++ (++ means a Ki(cathepsin S)/Ki(calpain) ratio of ≧100) | ++ (++ means a Ki(cathepsin L)/Ki(calpain) ratio of ≧50) | ++ (++ means a Ki(cathepsin B)/Ki(calpain) ratio of ≧30) | ++ (++ means a Ki(cathepsin K)/Ki(calpain) ratio of ≧30) |
| NC(=O)C(=O)[C@H](Cc1ccccc1)NC(=O)c1cccnc1-n1ccc(-c2ccccc2)n1 [Example 107, N-[(1S)-3-Amino-2,3-dioxo-1-(phenylmethyl)propyl]-2-(3-phenyl-1H-pyrazol-1-yl)pyridine-3-carboxamide] | ++ (++ means a Ki(cathepsin S)/Ki(calpain) ratio of ≧100) | ++ (++ means a Ki(cathepsin L)/Ki(calpain) ratio of ≧50) | + (+ means 10≦Ki(cathepsin B)/Ki(calpain)<30) | + (+ means 10≦Ki(cathepsin K)/Ki(calpain)<30) |
| NC(=O)C(=O)C(Cc1ccccc1)NC(=O)c1cccnc1-n1ccc(-c2cccc(Cl)c2Cl)n1 (centres unmarked) [Example 115, N-[3-Amino-2,3-dioxo-1-(phenylmethyl)propyl]-2-[3-(2,3-dichlorophenyl)-1H-pyrazol-1-yl]pyridine-3-carboxamide] | ++ (++ means a Ki(cathepsin S)/Ki(calpain) ratio of ≧100) | ++ (++ means a Ki(cathepsin L)/Ki(calpain) ratio of ≧50) | ++ (++ means a Ki(cathepsin B)/Ki(calpain) ratio of ≧30) | ++ (++ means a Ki(cathepsin K)/Ki(calpain) ratio of ≧30) |
| NC(=O)C(=O)C(Cc1ccccc1)NC(=O)c1cccnc1-n1ccc(-c2cc(F)cc(F)c2)n1 (centres unmarked) [Example 91, N-[3-Amino-2,3-dioxo-1-(phenylmethyl)propyl]-2-[3-(3,5-difluorophenyl)-1H-pyrazol-1-yl]pyridine-3-carboxamide] | ++ (++ means a Ki(cathepsin S)/Ki(calpain) ratio of ≧100) | ++ (++ means a Ki(cathepsin L)/Ki(calpain) ratio of ≧50) | ++ (++ means a Ki(cathepsin B)/Ki(calpain) ratio of ≧30) | + (+ means 10≦Ki(cathepsin K)/Ki(calpain)<30) |
| COc1ccc(CC(NC(=O)c2cccnc2-n2ccc(-c3ccc(F)cc3OC)n2)C(=O)C(N)=O)cc1 (centres unmarked) [Example 136, N-(3-Amino-1-{[4-(methyloxy)phenyl]methyl}-2,3-dioxopropyl)-2-{3-[4-fluoro-2-(methyloxy)phenyl]-1H-pyrazol-1-yl}pyridine-3-carboxamide] | ++ (++ means a Ki(cathepsin S)/Ki(calpain) ratio of ≧100) | ++ (++ means a Ki(cathepsin L)/Ki(calpain) ratio of ≧50) | ++ (++ means a Ki(cathepsin B)/Ki(calpain) ratio of ≧30) | ++ (++ means a Ki(cathepsin K)/Ki(calpain) ratio of ≧30) |
| COc1ccc(CC(NC(=O)c2cccnc2-n2ccc(-c3ccccc3F)n2)C(=O)C(N)=O)cc1 (centres unmarked) [Example 92, N-(3-Amino-1-{[4-(methyloxy)phenyl]methyl}-2,3-dioxopropyl)-2-[3-(2-fluorophenyl)-1H-pyrazol-1-yl]pyridine-3-carboxamide] | ++ (++ means a Ki(cathepsin S)/Ki(calpain) ratio of ≧100) | ++ (++ means a Ki(cathepsin L)/Ki(calpain) ratio of ≧50) | ++ (++ means a Ki(cathepsin B)/Ki(calpain) ratio of ≧30) | + (+ means 10≦Ki(cathepsin K)/Ki(calpain)<30) |
| CS(=O)(=O)Nc1cnc(-n2ccc(-c3ccccc3)n2)c(C(=O)NC(Cc2ccccc2)C(=O)C(N)=O)c1 (centres unmarked) [Example 158, N-[3-Amino-2,3-dioxo-1-(phenylmethyl)propyl]-5-[(methylsulfonyl)amino]-2-(3-phenyl-1H-pyrazol-1-yl)pyridine-3-carboxamide] | ++ (++ means a Ki(cathepsin S)/Ki(calpain) ratio of ≧100) | ++ (++ means a Ki(cathepsin L)/Ki(calpain) ratio of ≧50) | ++ (++ means a Ki(cathepsin B)/Ki(calpain) ratio of ≧30) | ++ (++ means a Ki(cathepsin K)/Ki(calpain) ratio of ≧30) |
| NC(=O)C(=O)C(Cc1ccc(OC(F)(F)F)cc1)NC(=O)c1cccnc1-n1ccc(-c2ccc(F)cc2)n1 (centres unmarked) [Example 132, N-[3-Amino-2,3-dioxo-1-({4-[(trifluoromethyl)oxy]phenyl}methyl)propyl]-2-[3-(4-fluorophenyl)-1H-pyrazol-1-yl]pyridine-3-carboxamide] | ++ (++ means a Ki(cathepsin S)/Ki(calpain) ratio of ≧100) | ++ (++ means a Ki(cathepsin L)/Ki(calpain) ratio of ≧50) | + (+ means 10≦Ki(cathepsin B)/Ki(calpain)<30) | ++ (++ means a Ki(cathepsin K)/Ki(calpain) ratio of ≧30) |
| COc1ccc(-c2ccn(-c3ncccc3C(=O)NC(Cc3ccccc3)C(=O)C(N)=O)n2)c(OC)c1 (centres unmarked) [Example 117, N-[3-Amino-2,3-dioxo-1-(phenylmethyl)propyl]-2-{3-[2,4-bis(methyloxy)phenyl]-1H-pyrazol-1-yl}pyridine-3-carboxamide] | ++ (++ means a Ki(cathepsin S)/Ki(calpain) ratio of ≧100) | ++ (++ means a Ki(cathepsin L)/Ki(calpain) ratio of ≧50) | ++ (++ means a Ki(cathepsin B)/Ki(calpain) ratio of ≧30) | ++ (++ means a Ki(cathepsin K)/Ki(calpain) ratio of ≧30) |
